The values that follow come from ChEMBL document CHEMBL1201862, “PubChem BioAssay data set” (2004).

Test systems include A498; BT-549; CCRF-CEM; EKVX; HCT-116; HL-60; IGROV-1; K562; LOX IMVI; OVCAR-4; OVCAR-5; PC-3; SF-268; SF-295; SK-MEL-2; SK-OV-3; SW-620; HCC 2998; RPMI-8226; MDA-N.
Holding throughout (experiment): growth of human tumour cells (NCI), 48 h

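Following 48 hours of exposure in 96-well plates, responses at five concentrations were used to interpolate endpoints linearly. At the GI50, growth is halved.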 Calls of active or inactive are those of the source. No stated cut-off is given here; in the data, active = GI50 up to about 1.1 µM and inactive = higher.

Turning to `Cc1ccc(C(=N)c2ccccc2Cc2cccc3ccccc23)c2ccccc12`, the GI50 in the experiment with A498 was > 100 µM (inactive); with BT-549, > 100 µM (inactive); with CCRF-CEM, 82.6 µM (inactive); in the experiment with EKVX it was 60.1 µM (inactive); with HCT-116, 22.1 µM (inactive); with HL-60, 44.1 µM (inactive). For the same compound, the GI50 in the experiment on IGROV-1 is > 100 µM (inactive); in the experiment with K562, 80 µM (inactive); in the experiment on LOX IMVI it was 80.2 µM (inactive); with OVCAR-4, > 100 µM (inactive); in the experiment on OVCAR-5, > 100 µM (inactive); in the experiment with PC-3, > 100 µM (inactive). The GI50 is > 100 µM (inactive) in the experiment on SF-268; 71.4 µM (inactive) with SF-295; > 100 µM (inactive) in the experiment with SK-MEL-2; > 100 µM (inactive) with SK-OV-3; 71 µM (inactive) in the experiment with SW-620.
With `NC1CC(=O)c2sccc21` (stereo unspecified), the GI50 in the experiment with A498, in the experiment with BT-549, with CCRF-CEM, in the experiment on EKVX, with HCC 2998 and in the experiment on HCT-116 was > 100 µM (inactive) each time. Also, the GI50 is > 100 µM (inactive) in the experiment on IGROV-1; > 100 µM (inactive) in the experiment with K562; > 100 µM (inactive) in the experiment on OVCAR-4; > 100 µM (inactive) in the experiment with OVCAR-5; 56.4 µM (inactive) in the experiment with PC-3; > 100 µM (inactive) with RPMI-8226. The GI50 in the experiment with SF-268 was > 100 µM (inactive); in the experiment on SF-295 it was > 100 µM (inactive); in the experiment on SK-MEL-2, 27.9 µM (inactive); in the experiment with SK-OV-3, > 100 µM (inactive); in the experiment on SW-620, > 100 µM (inactive).
Consider `CN(C)C(=O)C(F)(F)C(c1ccccc1)C1C(=O)N(C)C(=O)N(C)C1=O` (stereo unspecified), for which the GI50 with A498, in the experiment with BT-549, in the experiment on CCRF-CEM, in the experiment with EKVX, in the experiment with HCC 2998 and with HCT-116 was > 100 µM (inactive) throughout. Further, the GI50 in the experiment on K562, in the experiment on LOX IMVI, with OVCAR-4, in the experiment with OVCAR-5, in the experiment on PC-3 and in the experiment with RPMI-8226 was > 100 µM (inactive) each time. In addition, the GI50 in the experiment with SF-268, in the experiment on SF-295, in the experiment on SK-MEL-2, in the experiment with SK-OV-3 and in the experiment with SW-620 was > 100 µM (inactive) throughout.
With `CN1C(=O)C2(C=CC(O)CC2)c2ccccc21` (stereo unspecified), the GI50 in the experiment with A498, in the experiment on CCRF-CEM, with EKVX, in the experiment with HCC 2998, with HCT-116 and in the experiment on HL-60 was > 100 µM (inactive) in each case. Further, the GI50 in the experiment with IGROV-1, in the experiment on K562, with LOX IMVI, with MDA-N, in the experiment on OVCAR-4 and in the experiment with OVCAR-5 was > 100 µM (inactive) throughout. The GI50 in the experiment on PC-3, in the experiment on RPMI-8226, in the experiment on SF-268, with SF-295, in the experiment with SK-MEL-2 and in the experiment on SK-OV-3 was > 100 µM (inactive) throughout. Besides, the GI50 with SW-620 was > 100 µM (inactive).
With `CCc1cc2c(c3c1CCCC3=O)CC1(C2)Cc2cc(CC)c3c(c2C1)C(=O)CCC3`, the GI50 is > 100 µM (inactive) in the experiment with A498; 26.7 µM (inactive) in the experiment on CCRF-CEM; > 100 µM (inactive) with EKVX; > 100 µM (inactive) with HCC 2998; 61.1 µM (inactive) in the experiment on HCT-116; 61 µM (inactive) in the experiment on HL-60. Further, the GI50 is > 100 µM (inactive) in the experiment with IGROV-1; 65.9 µM (inactive) with K562; > 100 µM (inactive) with LOX IMVI; > 100 µM (inactive) with MDA-N; 73.6 µM (inactive) in the experiment on OVCAR-4; > 100 µM (inactive) in the experiment with OVCAR-5. The GI50 in the experiment with PC-3 is 46.5 µM (inactive); in the experiment with RPMI-8226, 46.9 µM (inactive); in the experiment with SF-268, > 100 µM (inactive); in the experiment on SF-295 it was > 100 µM (inactive); with SK-MEL-2, > 100 µM (inactive); with SK-OV-3, > 100 µM (inactive). Besides, the GI50 in the experiment on SW-620 was > 100 µM (inactive).
As for `Oc1ccc(C(O)(c2ccccc2)c2ccccc2)c2ccccc12`, the GI50 was 3.85 µM (inactive) in the experiment with BT-549; 0.019 µM (active) in the experiment on CCRF-CEM; 10.4 µM (inactive) in the experiment with EKVX; 2.1 µM (inactive) in the experiment on HCT-116; 2.93 µM (inactive) in the experiment on HL-60; 1.87 µM (inactive) in the experiment on IGROV-1. The GI50 with K562 was 3.13 µM (inactive); in the experiment with LOX IMVI, 1.25 µM (inactive); with OVCAR-4, 5.75 µM (inactive); in the experiment with OVCAR-5, 2.3 µM (inactive); in the experiment on PC-3, 2.25 µM (inactive); with SF-268, 2.4 µM (inactive). Further, the GI50 is 2.9 µM (inactive) in the experiment on SF-295, 2.4 µM (inactive) in the experiment with SK-MEL-2, 3.25 µM (inactive) in the experiment on SK-OV-3 and 2.64 µM (inactive) with SW-620.
For the compound `C=CCN(C(=O)CNC(=O)C(F)(F)F)c1cc(OCc2ccccc2)c2c(c1)c(C)cn2S(=O)(=O)c1ccccc1`, the GI50 in the experiment on BT-549 was > 100 µM (inactive); in the experiment on CCRF-CEM, 0.139 µM (active); with EKVX, 7.71 µM (inactive); in the experiment with HCC 2998 it was > 100 µM (inactive); in the experiment on HCT-116 it was 7.66 µM (inactive); with HL-60, < 0.01 µM (active). Further, the GI50 with IGROV-1 is 12.1 µM (inactive); in the experiment on K562, > 23.9 µM (inactive); in the experiment on LOX IMVI, 16 µM (inactive); in the experiment with OVCAR-4 it was 9.16 µM (inactive); in the experiment on OVCAR-5, > 100 µM (inactive); with PC-3, 5.96 µM (inactive). For the same compound, the GI50 is 4.73 µM (inactive) in the experiment with RPMI-8226; 6.59 µM (inactive) with SF-268; 23 µM (inactive) with SF-295; > 28.5 µM (inactive) in the experiment on SK-MEL-2; > 100 µM (inactive) with SK-OV-3.
Turning to `SC1=NNC2(C(S)=N1)c1ccccc1-c1ccccc12`, the GI50 in the experiment with A498 is 0.697 µM (active); in the experiment on BT-549, > 10 µM (inactive); in the experiment on CCRF-CEM it was > 10 µM (inactive); with EKVX, > 10 µM (inactive); in the experiment with HCC 2998, > 10 µM (inactive); in the experiment on HL-60, > 10 µM (inactive). Moreover, the GI50 in the experiment with IGROV-1, with K562, in the experiment with LOX IMVI, in the experiment with OVCAR-4, in the experiment on RPMI-8226 and in the experiment with SF-268 was > 10 µM (inactive) throughout. The GI50 in the experiment on SK-OV-3 and in the experiment on SW-620 was > 10 µM (inactive) each time.
